Results published in ChEMBL document CHEMBL1201862, “PubChem BioAssay data set” (2004).
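Values below derive from 48-hour exposures of cells grown in 96-well plates, with endpoints linearly interpolated between the two concentrations bracketing the appropriate inhibition level. GI50: concentration for 50% inhibition of growth.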 Active and inactive are the calls of the source. No stated cut-off is given here; in the data, active = GI50 up to about 1.1 µM and inactive = higher.

Legend:
Assay in all cases: NCI anticancer screen, dose series, 48 h
UACC-257 = tested on: UACC-257
OVCAR-5 = tested on: OVCAR-5
MOLT-4 = tested on: MOLT-4
SK-MEL-5 = tested on: SK-MEL-5
DU-145 = tested on: DU-145
TK-10 = tested on: TK-10
MDA-MB-435 = tested on: MDA-MB-435
LOX IMVI = tested on: LOX IMVI
SF-295 = tested on: SF-295
NCI-H460 = tested on: NCI-H460
Malme-3M = tested on: Malme-3M
786-0 = tested on: 786-0
CAKI-1 = tested on: CAKI-1
KM12 = tested on: KM12
OVCAR-4 = tested on: OVCAR-4
OVCAR-3 = tested on: OVCAR-3
U-251 = tested on: U-251
HCT-116 = tested on: HCT-116
HT-29 = tested on: HT-29
HL-60 = tested on: HL-60

| SMILES | GI50 (UACC-257) | GI50 (OVCAR-5) | GI50 (MOLT-4) | GI50 (SK-MEL-5) | GI50 (DU-145) | GI50 (TK-10) | GI50 (MDA-MB-435) | GI50 (LOX IMVI) | GI50 (SF-295) | GI50 (NCI-H460) | GI50 (Malme-3M) | GI50 (786-0) | GI50 (CAKI-1) | GI50 (KM12) | GI50 (OVCAR-4) | GI50 (OVCAR-3) | GI50 (U-251) | GI50 (HCT-116) | GI50 (HT-29) | GI50 (HL-60) |
| --- | --- | --- | --- | --- | --- | --- | --- | --- | --- | --- | --- | --- | --- | --- | --- | --- | --- | --- | --- | --- |
| Cn1cc(C(=O)c2nccc3c2cnc2ccccc23)ccc1=O | > 100 µM (inactive) | > 100 µM (inactive) | > 100 µM (inactive) | 15.3 µM (inactive) | > 100 µM (inactive) | > 100 µM (inactive) | > 100 µM (inactive) | > 100 µM (inactive) | > 100 µM (inactive) | 26.5 µM (inactive) | > 100 µM (inactive) | > 100 µM (inactive) | 13.2 µM (inactive) | > 100 µM (inactive) | > 100 µM (inactive) | > 100 µM (inactive) | > 100 µM (inactive) | 31.9 µM (inactive) | > 100 µM (inactive) | > 100 µM (inactive) |
| Cc1ccc(S(=O)(=O)N/N=C2/C3CCC(C3)C2c2ccccc2)cc1 (stereo not given) | > 100 µM (inactive) | > 100 µM (inactive) | > 100 µM (inactive) | > 100 µM (inactive) | > 100 µM (inactive) | > 100 µM (inactive) | > 100 µM (inactive) | > 100 µM (inactive) | > 100 µM (inactive) | > 100 µM (inactive) | > 100 µM (inactive) | > 100 µM (inactive) | > 100 µM (inactive) | > 100 µM (inactive) | > 100 µM (inactive) | > 100 µM (inactive) | > 100 µM (inactive) | > 100 µM (inactive) | > 100 µM (inactive) | > 100 µM (inactive) |
| Cc1ccc(C(=O)N/N=C(\N=N\c2cccc([N+](=O)[O-])c2)c2ccc(N(CCC#N)CCC#N)cc2C)cc1 | 10.6 µM (inactive) | 59.4 µM (inactive) | 24 µM (inactive) | 13.6 µM (inactive) | 29 µM (inactive) | 45.1 µM (inactive) | 18.1 µM (inactive) | 24.5 µM (inactive) | 26.9 µM (inactive) | 29 µM (inactive) | 4.12 µM (inactive) | 34.4 µM (inactive) | 38.9 µM (inactive) | 19.7 µM (inactive) | 23.7 µM (inactive) | 2.32 µM (inactive) | 36.1 µM (inactive) | 28.4 µM (inactive) | 29.2 µM (inactive) | 12.9 µM (inactive) |
| Cc1ccc2c(c1)/C(=N/Nc1ccccc1[N+](=O)[O-])C(=O)N2 | 13.9 µM (inactive) | 10.9 µM (inactive) | > 100 µM (inactive) | 7.35 µM (inactive) | 25 µM (inactive) | 3.24 µM (inactive) | > 100 µM (inactive) | 4.36 µM (inactive) | 14.5 µM (inactive) | 3.89 µM (inactive) | 3.48 µM (inactive) | 2.11 µM (inactive) | 3.32 µM (inactive) | 4.19 µM (inactive) | 2.37 µM (inactive) | 4.85 µM (inactive) | 4.07 µM (inactive) | 3.01 µM (inactive) | 31.6 µM (inactive) | > 100 µM (inactive) |
| COc1cc(/C=C/C(=O)Oc2ccc(NC(C)=O)cc2)ccc1C(=O)OCc1ccccc1 | > 100 µM (inactive) | > 100 µM (inactive) | > 85.3 µM (inactive) | > 100 µM (inactive) | > 77.3 µM (inactive) | > 95.9 µM (inactive) | > 100 µM (inactive) | 67.8 µM (inactive) | 40.6 µM (inactive) | > 73.1 µM (inactive) | > 93.5 µM (inactive) | 39.6 µM (inactive) | > 93.3 µM (inactive) | > 100 µM (inactive) | > 96.4 µM (inactive) | > 100 µM (inactive) | 41 µM (inactive) | > 100 µM (inactive) | > 100 µM (inactive) | > 72.3 µM (inactive) |
| Cc1c(Cl)nc(Cl)nc1Cl | 2.3 µM (inactive) | 1.88 µM (inactive) | 0.321 µM (active) | 2.16 µM (inactive) | 3.63 µM (inactive) | 3.51 µM (inactive) | 2.19 µM (inactive) | 0.373 µM (active) | 5.7 µM (inactive) | 5.71 µM (inactive) | 1.05 µM (active) | 1.48 µM (inactive) | 0.273 µM (active) | 2.44 µM (inactive) | 1.46 µM (inactive) | 1.85 µM (inactive) | 1.77 µM (inactive) | 1.14 µM (inactive) | 0.818 µM (active) | 1.94 µM (inactive) |
